From US20230150951A1, “2,5- OR 2,6-DISUBSTITUTED HYDROQUINONE DERIVATIVES WITH AT LEAST ONE CARBOXY, SULFO OR AMIDO GROUP USEFUL AS MEDICAMENTS” (OM PHARMA SA, priority 2020, published 2023)
Entries after “also recorded” stand apart in the source; their conditions may differ.

System: acute pancreatitis murine model
Experiment: Caerulein-induced acute pancreatitis murine model
Format: in vivo, Balb/c mice
Set-up: Serum IL33 level / Serum TGF-B level: unit not given here
Details: for Acinar cell necrosis (group mean score) / Haemorrhage (group mean score) / Interstitial oedema (group mean score) / Leukocyte infiltration (group mean score) / Mean terminal BW (% of initial) / Mean terminal pancreas weight / Pancreas histopathology observations (H&E) / Schmidt Score (H&E) / Pancreas IL33 level / Pancreas MPO activity / Pancreas TGF-B level / Serum IL33 level / Serum TGF-B level / Serum amylase level / Serum lipase level: 1st experiment, 15 mg/kg IV, Ib-010a and IVc-059a 150 mg/kg PO, Pirfenidone 40 mg/kg IV; for Acinar cell necrosis (group mean score) / Haemorrhage (group mean score) / Interstitial oedema (group mean score) / Leukocyte infiltration (group mean score) / Mean terminal BW (% of initial) / Mean terminal pancreas weight / Pancreas histopathology observations (H&E) / Schmidt Score (H&E): caerulein induced; for Schmidt Score (H&E): induced + vehicle = 10, non-induced = 0; for Pancreas IL33 level / Pancreas MPO activity / Pancreas TGF-B level: terminal pancreatic tissue; for Serum IL33 level / Serum TGF-B level / Serum amylase level / Serum lipase level: terminal serum; for TGF-B levels in pancreas / pancreatic tissue levels of IL33 / Global Schmidt score: first experiment; for pancreatic tissue levels of IL33: compared to the induced group; for Amylase / IL-33 / Lipase / MPO / Schmidt Score / TGF-B / Trichome staining (Fibrosis % area) / Lipase activity in serum / MPO activity in pancreatic tissue: second experiment; for Global Schmidt score: vs caerulein control animals; for Lipase activity in serum: pirfenidone 100 mg/kg, compounds 15 mg/k, vs vehicle treated animals; for MPO activity in pancreatic tissue: vs induced vehicle treated controls
Description: Therapeutic efficacy of the compounds according to the present invention was assessed on an acute pancreatitis murine model. Tissue samples were obtained to allow post in-life analysis of pancreatitis parameters. Plasma samples were also obtained to assess animal exposure levels after administration of the compounds.
Animals: A total of 70 female Balb/c mice aged 8-10 weeks weighing approximately 20-25 g were used for the study (Charles River). After 7 days acclimatization, they were allocated into the different groups. […] Cages, bedding, and water were sanitized before use. Animals were provided with Corn-o-cobs enrichment bedding to provide environment enrichment and nesting material. […] The animal holding room were maintained as follows—room temperature at 20-24° C., humidity at 30-70% and a 12 h light/dark cycle used. Although animals used in this study were immuno-competent, preparation of dosing solutions and dosing/weighing of animals were carried out in a sterile biosafety cabinet.
Final formulation was in 5% DMSO, 10% Solutol, 10% PEG400, 75% 0.9% Saline and pH adjusted to 7 with 0.5M NaOH solution.
Final formulation is in 5% DMSO, 10% Solutol, 10% PEG400, 75% 0.9% Saline and pH adjusted to 7 with 0.5M NaOH solution. For per os (PO) dosing IVc-059a is formulated in water. Drug solutions were formulated on the day of dosing.
The purposes of this study were to assess efficacy compounds in an acute pancreatitis model (14 days), generate tissue samples to allow post in-life analysis of pancreatitis parameters and generate four plasma samples to assess animal exposure levels after first and last injection obtained from blood samples taken 1 h and 24 h after first and last injection.
Study Design: On the first study day animals were randomly be assigned to treatment groups, ensuring an equal spread of bodyweight. Mice (except negative control group) were treated with test compounds were given 5 minutes prior to caerulein dosing, followed by injection with caerulein at […] via intraperitoneal route (IP) daily during the study.
Treatment of test compounds were given 5 minutes prior to caerulein dosing.
Sampling and post in-life analyses: at times indicated above a whole blood sample (60 μl) were taken from the lateral tail vein into tubes coated with K2-EDTA. Plasma samples were prepared and stored frozen at −20° C. Plasma samples were sent to client bioanalysis provider Eurofins (FR) for quantification of compound.
Terminal Sampling: Prior to termination animals were weighed. Terminal study animals were culled via CO2 inhalation. A terminal blood sample was taken via cardiac puncture and plasma prepared. Lipase and Amylase activities were measured via ELISA using commercially available ELISA kits. Remaining plasma was stored for future cytokine analyses. Pancreas tissue was resected and weighed, and a section ([…]) snap frozen and analysed for quantification of compound in pancreas sample. A section ([…]) was processed for measurement of MPO activity, IL-33 and TGF-B levels via ELISA. The remainder was fixed in formalin and embedded in paraffin wax. H&E staining was carried out and section assessed using Schmidts standard scoring system, examining: edema, inflammatory infiltration, parenchymal necrosis, haemorrhage. Massons' Trichrome staining was carried out and area covered by fibrotic tissue quantified digitally using QuPath software. Terminal serum samples was used to assess blood chemistry using an IdeXX CHEM15 and LYTE4 clip (4 animals per treatment group).
Histopathology assessment of pancreatic injury based on 4 criteria: Oedema, Inflammatory infiltration, Parenchymal necrosis, Haemorrhage and scored as described below.
Schmidt score is the evaluation of the efficacy of the compounds based on the four histopathology criteria as described in the table below.

[1] = IV, 15 mg/kg, Pirfenidone 100 mg/kg

Row | Mean terminal BW (% of initial) | SMILES | Acinar cell necrosis (group mean score) | Haemorrhage (group mean score) | Interstitial oedema (group mean score) | Leukocyte infiltration (group mean score) | Mean terminal pancreas weight | Pancreas histopathology observations (H&E) | Schmidt Score (H&E) | Pancreas IL33 level | Pancreas MPO activity | Pancreas TGF-B level | Serum IL33 level | Serum TGF-B level | Serum amylase level | Serum lipase level | TGF-B levels in pancreas (IV) | pancreatic tissue levels of IL33 (IV) | Amylase [1] | IL-33 [1] | Lipase [1] | also measured
1 | 91 % of initial | O=C(O)c1cc(NC(=O)c2cc(O)c(C(=O)O)cc2O)cc(NC(=O)c2cc(O)c(C(=O)O)cc2O)c1 [Ib-010a, 3,5-bis(2,5-dihydroxy-4-carboxybenzoylamino)benzoic acid] | 1.0 | 0.8 | 1.5 | 3.0 | 0.091 g | Oedema observed throughout pancreas and within; also recorded: Mild haemorrhage observed; also recorded: Mild acinar cell necrosis observed; also recorded: Leukocyte infiltration observed; also recorded: Disruption to the basophilic region | 6.3 | 157 ± 70 | 1.83 | 219 ± 140 | 35.36 | 6.87 | 37.46 | 9.06 | decreased significantly | significant decrease |  |  |  | 
2 |  | O=C(Nc1ccccc1-c1nnn[nH]1)c1cc(O)c(C(=O)Nc2ccccc2-c2nnn[nH]2)cc1O [Ic-001aTz2, N1,N4-bis(2-(1H-tetrazol-5-yl)phenyl)-2,5-dihydroxyterephthalamide] |  |  |  |  |  |  |  |  |  |  |  |  |  |  |  |  | 50.912 mU/mL | 493 ± 126 ng/mL | 8.305 mU/mL | MPO [1]: 2.63 ± 0.63 U/mg; Schmidt Score [1]: 3.9 ± 0.8; TGF-B [1]: 696 ± 448 ng/mL; Trichome staining (Fibrosis % area) [1]: 1.366 ± 0.562 % area
3 | 93.3 % of initial | O=C(O)c1cc(O)cc(CS(=O)(=O)Cc2cc(O)cc(C(=O)O)c2O)c1O [IVc-059a, 3-((2,5-Dihydroxy-3-carboxyphenyl)methylsulfonylmethyl)-2,5-dihydroxybenzoic acid] | 1.0 | 1.0 | 1.0 | 1.0 | 0.09 g | Mild oedema less observed; also recorded: Mild haemorrhage less observed; also recorded: Mild acinar cell necrosis observed; also recorded: Mild leukocyte infiltration observed; also recorded: Some pancreatic islet hyperplasia observed; also recorded: Disruption to the basophilic region | 4.0 | 86 ± 23 | 2.88 | 231 ± 199 | 46.54 | 5.69 | 38.56 | 10.21 | decreased significantly | significant decrease | 41.149 mU/mL | 215 ± 84 ng/mL | 4.324 mU/mL | Global Schmidt score: especially improved; Schmidt Score (H&E sections): lower scores than the positive control pirfenidone; MPO [1]: 1.813 ± 0.405 U/mg; Schmidt Score [1]: 10.63 ± 2.33; TGF-B [1]: 403 ± 84 ng/mL; Trichome staining (Fibrosis % area) [1]: 1.048 ± 0.449 % area; Lipase activity in serum: significantly lower than that in vehicle treated animals; MPO activity in pancreatic tissue: significantly lower than induced vehicle treated controls
4 | 91.4 % of initial | O=C(O)c1cc(O)c(CN(Cc2cc(O)c(C(=O)O)cc2O)Cc2cc(O)c(C(=O)O)cc2O)cc1O [IIIc-061a, Tris(4-carboxy-2,5-dihydroxyphenylmethyl)amine] | 0.5 | 1.0 | 1.0 |  | 0.086 g | Mild oedema observed; also recorded: Mild haemorrhage observed; also recorded: Mild acinar cell necrosis observed; also recorded: Mild leukocyte infiltration observed; also recorded: Normal islet morphology observed | 3.5 | 177 ± 80 | 2.13 | 295 ± 146 | 33.72 | 4.65 | 38.38 | 9.79 | decreased significantly | significant decrease |  |  |  | Global Schmidt score: especially improved; Schmidt Score (H&E sections): lower scores than the positive control pirfenidone; Lipase activity in serum: significantly lower than that in vehicle treated animals; MPO activity in pancreatic tissue: significantly lower than induced vehicle treated controls
5 |  | O=C(O)c1cc(NC(=O)c2cc(O)c(C(=O)O)cc2O)cc(C(=O)O)c1 [Ia-015a, 5-(4-carboxy-2,5-dihydroxybenzamido)isophthalic acid] |  |  |  |  |  |  |  |  |  |  |  |  |  |  |  |  | 51.669 mU/mL | 398 ± 148 ng/mL | 5.31 mU/mL | MPO [1]: 2.68 ± 0.6 U/mg; Schmidt Score [1]: 4.6 ± 0.8; TGF-B [1]: 547 ± 373 ng/mL; Trichome staining (Fibrosis % area) [1]: 1.704 ± 1.621 % area; Lipase activity in serum: significantly lower than that in vehicle treated animals

Row | SMILES | Mean terminal BW (% of initial) | Acinar cell necrosis (group mean score) | Haemorrhage (group mean score) | Interstitial oedema (group mean score) | Leukocyte infiltration (group mean score) | Mean terminal pancreas weight | Pancreas histopathology observations (H&E) | Schmidt Score (H&E) | Pancreas IL33 level | Pancreas MPO activity | Pancreas TGF-B level | Serum IL33 level | Serum TGF-B level | Serum amylase level | Serum lipase level | TGF-B levels in pancreas (IV) | pancreatic tissue levels of IL33 (IV) | Amylase [1] | IL-33 [1] | Lipase [1] | also measured
6 | O=C(O)c1cc(NC(=O)c2cc(O)c(C(=O)Nc3ccc(O)c(C(=O)O)c3)cc2O)ccc1O [Ic-007a, 5-(4-(3-carboxy-4-hydroxyphenylaminocarbonyl)-2,5-dihydroxybenzamido)-2-hydroxy benzoic acid] | 91.2 % of initial | 1.0 | 1.0 | 1.0 |  | 0.109 g | Mild oedema observed; also recorded: Mild haemorrhage observed; also recorded: Mild acinar cell necrosis observed; also recorded: Leukocyte infiltration observed; also recorded: Disruption to the basophilic region | 6.0 | 147 ± 47 | 1.65 | 188 ± 77 | 34.93 | 6.17 | 34.86 | 9.28 | decreased significantly | significant decrease |  |  |  | 
7 | O=C(O)c1cc(NC(=O)c2cc(O)c(C(=O)Nc3ccccc3-c3nnn[nH]3)cc2O)ccc1O [Ic-001a-Tz/004a, 5-(4-(2-(1H-tetrazol-5-yl)phenylaminocarbonyl)-2,5-dihydroxybenzamido)-2-hydroxy benzoic acid] | 93.5 % of initial | 1.5 | 1.0 | 1.6 | 2.8 | 0.104 g | Oedema observed throughout pancreas; also recorded: Mild haemorrhage observed; also recorded: Acinar cell necrosis observed; also recorded: Leukocyte infiltration throughout; also recorded: Disruption to the basophilic region | 6.9 | 180 ± 54 | 2.15 | 369 ± 195 | 35.43 | 8.99 | 36.51 | 8.21 |  | significant decrease |  |  |  | 
